Data reported in patent US20130150346A1, “Use of FAAH Inhibitors for Treating Parkinson's Disease and Restless Legs Syndrome” (Ironwood Pharmaceutical, Inc., priority 2010, published 2013).

Test: Plasma L-DOPA levels by LC-MS/MS in MPTP-lesioned marmosets
Assay type: in vivo, common marmosets (Callithrix jacchus)
Settings: URB597 10 mg/kg p.o., 2 h post L-DOPA, 4 h post URB597, p>0.05, paired t-test
Method: Six common marmosets (Callithrix jacchus; female; weight, 350-500 g (Harlan, Madison, Wis., USA)) were kept under conditions of controlled temperature (25±2° C.) and a 12-hour light/dark cycle (lights on 6:30 a.m.). Animals were group housed and had access to food, fresh-fruit supplements and water ad libitum and their home cage environment was enriched with primate toys, perches and auditory stimuli. Prior to start of studies, animals were acclimatized to handling, blood collection and administration of treatments (oral syringe feeding and subcutaneous injection) as well as transfer to observation cages for assessment of behavior. A parkinsonian syndrome was induced by once-daily subcutaneous administration of MPTP hydrochloride (Sigma, Canada; 2 mg/kg base concentration in 0.9% saline) for 5 consecutive days. Following this, animals were allowed to recover for 12 weeks to allow parkinsonian symptoms to develop and stabilize. […] Treatment-related complications including dyskinesia and psychosis-like behaviors were evoked by twice-daily treatment with L-DOPA p.o. (as Prolopa®, Roche Canada, Ontario, equivalent to 15 mg/kg L-DOPA and 3.5 mg/kg benserazide) for a minimum of 30 days. […]
The effect of oral treatment with either vehicle or URB597 (10 mg/kg) on plasma levels of L-DOPA was assessed at the beginning of the period of peak L-DOPA effect, i.e., 2 h after L-DOPA administration. […]

## NC(=O)c1cccc(-c2cccc(OC(=O)NC3CCCCC3)c2)c1 [URB597]
  effect of URB597 on plasma L-DOPA levels: did not alter
